Patent US4065570A (priority 1975, dated 1977)
≈ marks a conversion by molar mass, not a printed value. Where “and” joins values, the source holds several entries; their conditions need not be identical. Equal values may be shown once.

Tests used:
Polio I [1] = assay: organism not typed; format: cell-based; conditions: Vero
Vero cells = assay: cytotoxicity against Vero cells; format: cell-based, African green monkey; conditions: Vero cells; for Cytotoxicity CTD50: 50% inhibition of the cell growth; for Cytotoxicity CTD0: maximal non-toxic concentration
Experimental: (§1) In preparing the compounds for testing, they were handled aseptically throughout. The compounds were dissolved in a minimum amount of a suitable solvent, and the final dilutions were made up to the required volume in a complete culture medium in a concentration not exceeding the predetermined maximum non-cytotoxic levels.
(§2) The cell cultures used in all primary in vitro antipicorna virus screening tests were an established cell line of the African green monkey kidney (VERO), a primary cell culture of the Cercopythecus monkey kidney, or human embryonic lung diploid cells WI-38.
(§3) The cytotoxic stuides were performed on each of the compounds to determine the level of response of the cells used to the potentially toxic action of the substances.
(§4) The cells were grown in test tubes in a suitable medium. Immediately before use the initial medium was replaced with the one which contained the test compound in an appropriate concentration. After the virus was added, the infected culture was incubated at 37° C for a number of days and the cytopathic effect of the virus observed and recorded. The results were read every day in all of the tubes and the destruction of cells assessed in precentage of the cell sheet destroyed: 0-25-50-75-100%. As controls, cells with only virus (for cytopathic effect) or with only the compound (for cytotoxic effect) were used as well as the normal, uninfected cells (no cytotoxic -- no cytopathic effects).

Polio I [2] = assay: cells; format: cell-based; conditions: Primates
[3] = test system: viruses of the Picorna group; assay: antiviral activity (general statements); format: cell-based; conditions: result in words
Experimental: The in vitro activity of representative compounds of the present invention are set forth below.
as §1, §2, §4
Net difference in cytopathic effect between treated and control tubes expressed in percentage give the extent of the inhibitory activity of the substance.

[4] = cytotoxicity against Vero cells; format: cell-based, African green monkey; conditions: african green monkey
Experimental: as §1, §2, §3, §4

In the case of “Acetylated 5-(3',4',5'-trimethoxybenzal) hydantoin [Example 23]”, the “% Inhibition” value (Polio I [1]; 316 TCID50, 0.1 μg/ml) is reported as 0%, the “% Inhibition” value (Polio I [1]; 316 TCID50, 0.3 μg/ml) is reported as 14% and the “% Inhibition” value (Polio I [1]; 316 TCID50, 0.7 μg/ml) is reported as 36%. For the same compound, the “% Inhibition” value (Polio I [1]; 316 TCID50, 1 μg/ml) was 46%, the “% Inhibition” value (Polio I [1]; 316 TCID50, 3.3 μg/ml) was 56% and the “% Inhibition” value (Polio I [1]; 316 TCID50, 6.7 μg/ml) was 72%. The “% Inhibition” value (Polio I [1]; 316 TCID50, 10 μg/ml) was 96%, the “Cytotoxicity CTD50” value (Vero cells) was 50 µg/mL and the “Cytotoxicity CTD0” value (Vero cells) was 10 µg/mL.

For “Acetylated 5-(3'-methoxy-4'-acetoxybenzal) hydantoin [Example 15]”, the “Cytotoxicity CTD50” value (Vero cells) was over 100 µg/mL and the “Cytotoxicity CTD0” value (Vero cells) was over 10 µg/mL.

COc1ccc(C=C2NC(=O)NC2=O)cc1OC [5-(3',4'-DIMETHOXYBENZAL) HYDANTOIN, 5-(3',4'-Dimethoxybenzal) hydantoin] gave an inhibition at 50 µg/mL (Polio I [2]) of 34% and an inhibition at 100 µg/mL (Polio I [2]) of 45%.

For “Acetylated 5-(2',4',5'-trimethoxybenzal) hydantoin [Example 22]”, the “% Inhibition” value (Polio I [1]; 10 TCID50, 0.01 μg/ml) was 4%, the “% Inhibition” value (Polio I [1]; 10 TCID50, 0.03 μg/ml) was 8% and the “% Inhibition” value (Polio I [1]; 10 TCID50, 0.07 μg/ml) was 27%. For the same compound, the “% Inhibition” value (Polio I [1]; 10 TCID50, 0.1 μg/ml) was 54%, the “% Inhibition” value (Polio I [1]; 10 TCID50, 0.3 μg/ml) was 98% and the “% Inhibition” value (Polio I [1]; 10 TCID50, 0.7 μg/ml) was 98%. For the same compound, the “% Inhibition” value (Polio I [1]; 10 TCID50, 1 μg/ml) was 100%, the “% Inhibition” value (Polio I [1]; 100 TCID50, 0.01 μg/ml) was 0% and the “% Inhibition” value (Polio I [1]; 100 TCID50, 0.03 μg/ml) was 0%. The “% Inhibition” value (Polio I [1]; 100 TCID50, 0.07 μg/ml) was 25%, the “% Inhibition” value (Polio I [1]; 100 TCID50, 0.1 μg/ml) was 50% and the “% Inhibition” value (Polio I [1]; 100 TCID50, 0.3 μg/ml) was 90%. For the same compound, the “% Inhibition” value (Polio I [1]; 100 TCID50, 0.7 μg/ml) was 93%, the “% Inhibition” value (Polio I [1]; 100 TCID50, 1 μg/ml) was 100% and the “Cytotoxicity CTD50” value (Vero cells) was over 100 µg/mL. For the same compound, the “Cytotoxicity CTD0” value (Vero cells) was 1 µg/mL.

In the case of “N-monoacetylated 5-(3',4'-dimethoxybenzal) hydantoin [Example 31]”, the “% Inhibition” value (Polio I [1]; 316 TCID50, 1 μg/ml) is reported as 0%, the “% Inhibition” value (Polio I [1]; 316 TCID50, 5 μg/ml) is reported as 0% and the “% Inhibition” value (Polio I [1]; 316 TCID50, 10 μg/ml) is reported as 7%. The “% Inhibition” value (Polio I [1]; 316 TCID50, 50 μg/ml) was 84%, the “Cytotoxicity CTD50” value (Vero cells) was 100 µg/mL and the “Cytotoxicity CTD0” value (Vero cells) was 10 µg/mL. The “anti-viral activity in tissue culture tests” value [3] was “more active than the unacetylated compound”.

With “Acetylated 5-(3',4'-dimethoxybenzal) hydantoin” the “degree of antiviral activity” value ([3]; listed as Example 30) was “highly effective against Picorna group of viruses” and the “degree of antiviral activity” value ([3]; listed as acetylated 5-(3',4'-dimethoxybenzal) hydantoin (anhydrous sodium acetate and ace)) was “exceptionally good antiviral activity”.

With “Acetylated 5-benzalhydantoin [Example 16]” the “Cytotoxicity CTD50” value (Vero cells) was 83 µg/mL and the “Cytotoxicity CTD0” value (Vero cells) was 10 µg/mL.

For “Acetylated 5-(3',5'-dimethoxybenzal) hydantoin [Example 21]”, the “% Inhibition” value (Polio I [1]; 10 TCID50, 0.5 μg/ml) was 15%, the “% Inhibition” value (Polio I [1]; 10 TCID50, 1 μg/ml) was 50% and the “% Inhibition” value (Polio I [1]; 10 TCID50, 5 μg/ml) was 100%. For the same compound, the “% Inhibition” value (Polio I [1]; 10 TCID50, 10 μg/ml) was 100%, the “% Inhibition” value (Polio I [1]; 100 TCID50, 0.5 μg/ml) was 0% and the “% Inhibition” value (Polio I [1]; 100 TCID50, 1 μg/ml) was 32%. The “% Inhibition” value (Polio I [1]; 100 TCID50, 5 μg/ml) was 100%, the “% Inhibition” value (Polio I [1]; 100 TCID50, 10 μg/ml) was 100% and the “Cytotoxicity CTD50” value (Vero cells) was > 100 µg/mL and 100 µg/mL. For the same compound, the “Cytotoxicity CTD0” value (Vero cells) was 100 µg/mL.

COc1ccc(C=C2C(=O)N(C(C)=O)C(=O)N2C(C)=O)cc1OC [Example 32, N,N-diacetylated 5-(3',4'-dimethoxybenzal) hydantoin] gave an inhibition at 1 µg/mL (Polio I [1]; 316 TCID50, 1 μg/ml) of 100%, an inhibition at 5 µg/mL (Polio I [1]; 316 TCID50, 5 μg/ml) of 100% and an inhibition at 10 µg/mL (Polio I [1]; 316 TCID50, 10 μg/ml) of 100%. For the same compound, the inhibition at 50 µg/mL (Polio I [1]; 316 TCID50, 50 μg/ml) was 100%, the CC50 ([4]; vero cells, read-out: Cytotoxicity CTD50) was 33 µg/mL (≈ 99.3 µM) and the MNTC ([4]; Vero cells, maximal non-toxic concentration, read-out: Cytotoxicity CTD0) was 10 µg/mL. For the same compound, the “anti-viral activity in tissue culture tests” value [3] was “much greater anti-viral activity than the former”.
